Measurements: PubChem BioAssay (NCI)
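Protocol summary: plate cells (96-well), add compound at 5 concentrations, incubate 48 h, interpolate endpoints linearly. GI50: concentration for 50% inhibition of growth. TGI denotes the concentration required for complete inhibition of growth.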

Experiments:
Assay in all cases: inhibition of tumour cell growth, NCI panel, 48 h
786-0 renal = system: 786-0 renal
A498 renal = system: A498 renal
A549 NSCLC = system: A549 NSCLC
ACHN renal = system: ACHN renal
BT-549 breast = system: BT-549 breast
CAKI-1 renal = system: CAKI-1 renal
CCRF-CEM leukemia = system: CCRF-CEM leukemia
COLO 205 colon = system: COLO 205 colon
DU-145 prostate = system: DU-145 prostate
EKVX NSCLC = system: EKVX NSCLC
HCC-2998 colon = system: HCC-2998 colon
HCT-116 colon = system: HCT-116 colon
HCT-15 colon = system: HCT-15 colon
HL-60(TB) leukemia = system: HL-60(TB) leukemia
HOP-62 NSCLC = system: HOP-62 NSCLC
HOP-92 NSCLC = system: HOP-92 NSCLC
HS 578T breast = system: HS 578T breast
HT29 colon = system: HT29 colon
IGROV1 ovarian = system: IGROV1 ovarian
K-562 leukemia = system: K-562 leukemia
KM12 colon = system: KM12 colon
LOX IMVI melanoma = system: LOX IMVI melanoma
MALME-3M melanoma = system: MALME-3M melanoma
MCF7 breast = system: MCF7 breast
MDA-MB-231 breast = system: MDA-MB-231 breast
MDA-MB-468 breast = system: MDA-MB-468 breast
MOLT-4 leukemia = system: MOLT-4 leukemia
NCI-H226 lung = system: NCI-H226 lung
NCI-H23 lung = system: NCI-H23 lung
NCI-H460 lung = system: NCI-H460 lung
NCI-H522 lung = system: NCI-H522 lung
NCI/ADR-RES ovarian = system: NCI/ADR-RES ovarian
OVCAR-3 ovarian = system: OVCAR-3 ovarian
OVCAR-4 ovarian = system: OVCAR-4 ovarian
OVCAR-5 ovarian = system: OVCAR-5 ovarian
OVCAR-8 ovarian = system: OVCAR-8 ovarian
PC-3 prostate = system: PC-3 prostate
RPMI-8226 leukemia = system: RPMI-8226 leukemia
RXF 393 renal = system: RXF 393 renal
SF-268 CNS = system: SF-268 CNS
SF-295 CNS = system: SF-295 CNS
SF-539 CNS = system: SF-539 CNS
SK-MEL-2 melanoma = system: SK-MEL-2 melanoma
SK-MEL-28 melanoma = system: SK-MEL-28 melanoma
SK-MEL-5 melanoma = system: SK-MEL-5 melanoma
SK-OV-3 ovarian = system: SK-OV-3 ovarian
SN12C renal = system: SN12C renal
SNB-19 CNS = system: SNB-19 CNS
SR leukemia = system: SR leukemia
SW-620 colon = system: SW-620 colon
T-47D breast = system: T-47D breast
TK-10 renal = system: TK-10 renal
U251 CNS = system: U251 CNS
UACC-257 melanoma = system: UACC-257 melanoma
UACC-62 melanoma = system: UACC-62 melanoma
UO-31 renal = system: UO-31 renal

`Cc1ccc(/C=C(\C#N)n2nnc3c(F)cccc32)cc1` showed a GI50 (786-0 renal) of 424 nM, a TGI (786-0 renal) of 15800 nM and a GI50 (A498 renal) of 10800 nM. For the same molecule, the TGI (A498 renal) was 87000 nM, the GI50 (A549 NSCLC) was 504 nM and the TGI (A549 NSCLC) was > 100000 nM. The GI50 (ACHN renal) was 555 nM, the TGI (ACHN renal) was > 100000 nM and the GI50 (BT-549 breast) was 365 nM. The TGI (BT-549 breast) was 2490 nM, the GI50 (CAKI-1 renal) was 152 nM and the TGI (CAKI-1 renal) was > 100000 nM. It also gave a GI50 (CCRF-CEM leukemia) of 285 nM, a TGI (CCRF-CEM leukemia) of 1660 nM and a GI50 (COLO 205 colon) of 294 nM. The TGI (COLO 205 colon) was 739 nM, the GI50 (DU-145 prostate) was 386 nM and the TGI (DU-145 prostate) was > 100000 nM. The GI50 (EKVX NSCLC) was 1560 nM, the TGI (EKVX NSCLC) was > 94100 nM and the GI50 (HCC-2998 colon) was 971 nM. The TGI (HCC-2998 colon) was 3240 nM, the GI50 (HCT-116 colon) was 285 nM and the TGI (HCT-116 colon) was > 35800 nM. For the same molecule, the GI50 (HCT-15 colon) was 319 nM, the TGI (HCT-15 colon) was > 100000 nM and the GI50 (HL-60(TB) leukemia) was 196 nM. The TGI (HL-60(TB) leukemia) was 519 nM, the GI50 (HOP-62 NSCLC) was 398 nM and the TGI (HOP-62 NSCLC) was 6290 nM. For the same molecule, the GI50 (HOP-92 NSCLC) was 79.7 nM, the TGI (HOP-92 NSCLC) was 1680 nM and the GI50 (HS 578T breast) was 379 nM. The TGI (HS 578T breast) was > 100000 nM, the GI50 (HT29 colon) was 426 nM and the TGI (HT29 colon) was > 100000 nM. The GI50 (IGROV1 ovarian) was 507 nM, the TGI (IGROV1 ovarian) was 9150 nM and the GI50 (K-562 leukemia) was 62.4 nM. For the same molecule, the GI50 (KM12 colon) was 470 nM, the TGI (KM12 colon) was > 100000 nM and the GI50 (LOX IMVI melanoma) was 349 nM. The TGI (LOX IMVI melanoma) was 2300 nM, the GI50 (MALME-3M melanoma) was 404 nM and the TGI (MALME-3M melanoma) was > 96200 nM. For the same molecule, the GI50 (MCF7 breast) was 1530 nM, the TGI (MCF7 breast) was > 100000 nM and the GI50 (MDA-MB-231 breast) was 426 nM. For the same molecule, the TGI (MDA-MB-231 breast) was 2770 nM, the GI50 (MDA-MB-468 breast) was 1530 nM and the TGI (MDA-MB-468 breast) was 8710 nM. It also gave a GI50 (MOLT-4 leukemia) of 473 nM, a TGI (MOLT-4 leukemia) of 4400 nM and a GI50 (NCI-H226 lung) of 936 nM. The TGI (NCI-H226 lung) was > 62900 nM, the GI50 (NCI-H23 lung) was 523 nM and the TGI (NCI-H23 lung) was 29000 nM. It also gave a GI50 (NCI-H460 lung) of 376 nM, a TGI (NCI-H460 lung) of 3300 nM and a GI50 (NCI-H522 lung) of 84.4 nM. For the same molecule, the TGI (NCI-H522 lung) was 360 nM, the GI50 (NCI/ADR-RES ovarian) was 111 nM and the TGI (NCI/ADR-RES ovarian) was 343 nM. It also gave a GI50 (OVCAR-3 ovarian) of 254 nM, a TGI (OVCAR-3 ovarian) of 941 nM and a GI50 (OVCAR-4 ovarian) of 2790 nM. For the same molecule, the TGI (OVCAR-4 ovarian) was > 100000 nM, the GI50 (OVCAR-5 ovarian) was 421 nM and the TGI (OVCAR-5 ovarian) was 5240 nM. It also gave a GI50 (OVCAR-8 ovarian) of 328 nM, a TGI (OVCAR-8 ovarian) of 1690 nM and a GI50 (PC-3 prostate) of 328 nM. For the same molecule, the TGI (PC-3 prostate) was > 38900 nM, the GI50 (RPMI-8226 leukemia) was 296 nM and the TGI (RPMI-8226 leukemia) was 1710 nM. The GI50 (RXF 393 renal) was 237 nM, the TGI (RXF 393 renal) was 735 nM and the GI50 (SF-268 CNS) was 765 nM. The TGI (SF-268 CNS) was > 61500 nM, the GI50 (SF-295 CNS) was 289 nM and the TGI (SF-295 CNS) was 50800 nM. It also gave a GI50 (SF-539 CNS) of 200 nM, a TGI (SF-539 CNS) of 467 nM and a GI50 (SK-MEL-2 melanoma) of 302 nM. For the same molecule, the TGI (SK-MEL-2 melanoma) was > 100000 nM, the GI50 (SK-MEL-28 melanoma) was 825 nM and the TGI (SK-MEL-28 melanoma) was > 100000 nM. For the same molecule, the GI50 (SK-MEL-5 melanoma) was 399 nM, the TGI (SK-MEL-5 melanoma) was 4360 nM and the GI50 (SK-OV-3 ovarian) was 585 nM. It also gave a TGI (SK-OV-3 ovarian) of 46200 nM, a GI50 (SN12C renal) of 416 nM and a TGI (SN12C renal) of 2250 nM. The GI50 (SNB-19 CNS) was 718 nM, the TGI (SNB-19 CNS) was > 100000 nM and the GI50 (SR leukemia) was 254 nM. The TGI (SR leukemia) was 4310 nM, the GI50 (SW-620 colon) was 250 nM and the TGI (SW-620 colon) was > 100000 nM. The GI50 (T-47D breast) was 1630 nM, the TGI (T-47D breast) was > 100000 nM and the GI50 (TK-10 renal) was 2700 nM. For the same molecule, the TGI (TK-10 renal) was 7790 nM, the GI50 (U251 CNS) was 387 nM and the TGI (U251 CNS) was > 42700 nM. For the same molecule, the GI50 (UACC-257 melanoma) was 894 nM, the TGI (UACC-257 melanoma) was > 100000 nM and the GI50 (UACC-62 melanoma) was 273 nM. For the same molecule, the TGI (UACC-62 melanoma) was 27000 nM, the GI50 (UO-31 renal) was 324 nM and the TGI (UO-31 renal) was > 100000 nM.
